Test results taken from patent US20150018305A1, “SIRTUIN INDUCER, TISSUE REPAIRING AGENT, HEPATOCYTE GROWTH FACTOR INDUCER, TISSUE HOMEOSTASIS MAINTENANCE AGENT, AND TLR4 AGONIST, HAVING HYALURONIC ACID FRAGMENT AS ACTIVE INGREDIENT” (HYALURONAN RESEARCH INSTITUTE, INC., priority 2012, published 2015).

How the values were obtained:
[1] = test system: human large intestine epithelial cells (HT29 cells); experiment: Hydrogen peroxide induced aging of human large intestine epithelial cells, MTS assay (Test Examples 16-18); format: cell-based; conditions: for suppression of cellular aging (MTS value, OD 490 nm): hydrogen peroxide 10 μM 15 min
Method: Human large intestine epithelial cells (HT29 cells) were experienced cellular aging (decline in mitochondrial activity due to injury, or a drop in the MTS value once cell death occurs) due to stimulation by the hydrogen peroxide when treated with hydrogen peroxide, and it was investigated whether this process is affected by treatment with the hyaluronic acid fragment. Specifically, the following test was performed.
Using a DMEM culture medium (made by Wako Pure Chemical Industries, Ltd.), human large intestine epithelial cells (HT29 cells) were cultured by usual methods at 37° C. under 5% CO2. Hydrogen peroxide was added to the culture medium to a final concentration of 10 μM to bring about stimulation for a 15-minute period, and the culture broth was then transferred to DMEM culture medium containing no hyaluronic acid fragments; to DMEM culture medium containing hyaluronic acid fragment (4mer) in a final concentration of 100 ng/ml; or to DMEM culture medium containing the hyaluronic acid fragment (4mer) plus TLR4/MD2 in a final concentration of 10 μg/ml, and cultured for 3 hours.
After 3 hours had passed, an MTS assay was performed. On the basis of the action, in which MTS is converted to formazan by dehydrogenation in the mitochondria of the cell, OD 490 nm was measured to measure mitochondrial function.
Using hyaluronic acid fragment (4mer), hyaluronic acid fragment (L4mer) and hyaluronic acid fragment (L3mer) as test substances, tests similar to those of Test Example 16 were performed, except that the culture time following transfer to the culture medium containing the test substance was one hour.
Tests similar to those of Test Example 16 were performed, except for using hyaluronic acid fragment (L4mer), and hyaluronic acid fragment (L3mer) as test substances.

[2] = test system: sirtuin enzymatic activity (sirt1 enzymatic activity); experiment: Sirtuin enzymatic activity in cell solution of human epidermal keratinocytes, CycLex SIRT1/Sir2 Deacetylase Fluorometric Assay Kit (Test Example 2); format: cell-based; conditions: 10 ng/ml final concentration; cell crude extract
Method: Human epidermal keratinocytes were treated in the same manner as in Test Example 1, except that the final concentration of the hyaluronic acid fragment was 10 ng/ml, the size thereof being four sugar units (4mer), six sugar units (6mer), or 10 sugar units (10mer), while measuring the sirtuin enzymatic activity (sirt1 enzymatic activity) in the cell solution thereof. For purposes of comparison, 10 kDa or 900 kDa hyaluronic acid, and resveratrol, a known sirtuin activator, were likewise tested at 10 ng/ml final concentration. A human sirtuin recombinant protein (recombinant human sirt1) produced through genetic recombination techniques was used as a substance for verification of the measurement system. Sirtuin enzymatic activity in the cell crude extract was measured with the CycLex SIRT1/Sir2 Deacetylase Fluorometric Assay Kit (trade name of CycLex), following the protocol of the kit.

Structure (SMILES) | suppression of cellular aging (MTS value, OD 490 nm) ([1]; then 100 ng/ml for 3 hours) | suppression of cellular aging (MTS value, OD 490 nm) ([1]; then test substance for one hour) | suppression of cellular aging with TLR4/MD2 added (MTS) ([1]; hydrogen peroxide 10 μM, 100 ng/ml plus TLR4/MD2 10 μg/ml, 3 hours) | sirtuin enzymatic activity (sirt1 enzymatic activity) compared with negative control [2]
CC(=O)NC1C(O[C@@H]2OC(C(=O)O)[C@@H](O[C@@H]3OC(CO)[C@@H](O)C(O[C@@H]4OC(C(=O)O)[C@@H](O)C(O)C4O)C3NC(C)=O)C(O)C2O)[C@H](O)C(CO)O[C@H]1OCCCN=[N+]=[N-] (stereo partly shown) [L4mer] | showed effect in suppressing cellular aging | showed effect in suppressing cellular aging | inhibited by the addition of TLR4/MD2 | –
Oc1ccc(C=Cc2cc(O)cc(O)c2)cc1 [resveratrol, reference compound] | – | – | – | No change was observed
